Here are results for nine compounds from ChEMBL document CHEMBL5214944, “Preparation of radiolabeled erlotinib analogues and analysis of the effect of linkers” (Bioorg Med Chem Lett, 2022).

Series [1] is described as follows: Octanol/water partition coefficient, logP of compound by gamma counter analysis. In kind it is physicochemical.
Series [2] in a line: Biodistribution in Swiss mouse assessed as accumulation at radioactivity in liver at 3 MBq, iv and measured 1 hr post injection by gamma counter method. In kind it is ADME, organism-based. The settings on record: in vivo.
A further series relates to A-431. The series can be described thus: Cytotoxicity against human A-431 cells assessed as inhibition of cell growth at 100 uM incubated for 24 hrs by MTT assay. The settings on record: a-431, 24 h. In kind it is toxicity, cell-based. Background: Tetrazolium assays rely on reduction of a dye to a coloured formazan, in cell work by metabolically active cells.
Series [3] in a line: Retention time of the compound by RP-HPLC analysis. In kind it is physicochemical.
A short description of series [4]: Cytotoxicity against human A-431 cells assessed as inhibition of cell growth at 100 uM incubated for 72 hrs by MTT assay. In kind it is toxicity, cell-based.
Series [5] is described as follows: Cytotoxicity against human A-431 cells assessed as inhibition of cell growth at 50 uM incubated for 24 hrs by MTT assay. The format is toxicity, cell-based. The settings on record: read-out: Activity.

For orientation: logP means a log measure of how a compound divides between an organic and an aqueous phase.

With `C#Cc1cccc(Nc2ncnc3cc(OCCOC)c(OCCO[11CH3])cc23)c1`, in series [1], the logP was found to be 3.2. The Drug uptake in series [2] came to 10.55 % ID/g.

`COCCOc1cc2ncnc(Nc3cccc(-c4cn(CCOCCOCCOCCOCCOCCOCCNC(=S)Nc5ccc(CC6CN(CC(=O)O)CCN(CC(=O)O)CCN(CC(=O)O)CCN6CC(=O)O)cc5)nn4)c3)c2cc1OCCOC` (stereo not drawn): the Activity result in the series on A-431 was “Toxic”. The Retention_time in series [3] is 18.5 min. For the same compound, the inhibition at 72 h, 100 µM in series [4] turned out to be 90.9%.

Turning to `COCCOc1cc2ncnc(Nc3cccc(-c4cn(CCOCCOCCOCCNC(=S)Nc5ccc(CC6CN(CC(=O)O)CCN(CC(=O)O)CCN(CC(=O)O)CCN6CC(=O)O)cc5)nn4)c3)c2cc1OCCOC` (stereo not drawn), in the series on A-431, the Activity entry is recorded as “Toxic”. In addition, the Retention_time in series [3] was found to be 17.2 min. Besides, the inhibition at 72 h, 100 µM in series [4] came to 92.6%.

For `C#Cc1cccc(Nc2ncnc3cc(OCCOC)c(OCCOC)cc23)c1` [ERLOTINIB], the inhibition at 24 h, 50 µM in series [5] was found to be 29.8%. Further, in series [4], the inhibition at 72 h, 100 µM was 92.7%.

`COCCOc1cc2ncnc(Nc3cccc(-c4cn(CCCNC(=S)Nc5ccc(CC6CN(CC(=O)O)CCN(CC(=O)O)CCN(CC(=O)O)CCN6CC(=O)O)cc5)nn4)c3)c2cc1OCCOC` (stereo not drawn): the Activity result with A-431 is “Non-Toxic”. In series [3], the Retention_time was 15.9 min. Also, in series [4], the inhibition at 72 h, 100 µM turned out to be 91.3%.

In series [1], `COCCOc1cc2ncnc(Nc3cccc(-c4cn(CC[18F])nn4)c3)c2cc1OCCOC` came in with a logP of 2.36. Also, the Drug uptake in series [2] is on record as 17.1 % ID/g.

Compound `COCCOc1cc2ncnc(Nc3cccc(-c4cn(CCOCCOCCOCCN)nn4)c3)c2cc1OCCOC` displayed a Retention_time in series [3] of 15.9 min.

As for `COCCOc1cc2ncnc(Nc3cccc(-c4cn(CCOCCOCCOCCOCCOCCOCCN)nn4)c3)c2cc1OCCOC`, the Retention_time in series [3] was determined as 17.4 min.

In the case of `COCCOc1cc2ncnc(Nc3cccc(-c4cn(CCCN)nn4)c3)c2cc1OCCOC`, the Retention_time in series [3] came to 13.5 min.
